Columns and labels:
Format in all cases: binding
Parameters in all cases: KINOMEscan: ABL1(F317L)-phosphorylated / KINOMEscan: ABL1(H396P)-nonphosphorylated / KINOMEscan: ABL1(H396P)-phosphorylated / KINOMEscan: ABL1(M351T)-phosphorylated / KINOMEscan: ABL1(T315I)-phosphorylated / KINOMEscan: ABL1-nonphosphorylated / KINOMEscan: ABL1-phosphorylated / KINOMEscan: ACVR2A / KINOMEscan: ACVR2B / KINOMEscan: ADCK3 / KINOMEscan: ADCK4 / KINOMEscan: AKT1 / KINOMEscan: AKT3 / KINOMEscan: ALK / KINOMEscan: ARK5 / KINOMEscan: AURKA / KINOMEscan: AURKC / KINOMEscan: BIKE / KINOMEscan: BMPR1A / KINOMEscan: BMPR1B / KINOMEscan: BMX / KINOMEscan: BRK / KINOMEscan: BRSK1 / KINOMEscan: BRSK2 / KINOMEscan: CAMK1 / KINOMEscan: CAMK1D / KINOMEscan: CAMK1G / KINOMEscan: CAMK2A / KINOMEscan: CAMK2B / KINOMEscan: AAK1 / KINOMEscan: CAMK2D / KINOMEscan: CAMK2G / KINOMEscan: ABL1(F317I)-nonphosphorylated / KINOMEscan: ABL1(F317I)-phosphorylated / KINOMEscan: ABL1(F317L)-nonphosphorylated: unit: % Ctrl
Conditions in all cases: Compound Concentration 10 µM
panel of 442 kinases [1] = target: T1, panel of 442 kinases (Homo sapiens, UniProt P35916)
T1 construct: purchased KINOMEscan
T1 sequence (P35916 25-1363): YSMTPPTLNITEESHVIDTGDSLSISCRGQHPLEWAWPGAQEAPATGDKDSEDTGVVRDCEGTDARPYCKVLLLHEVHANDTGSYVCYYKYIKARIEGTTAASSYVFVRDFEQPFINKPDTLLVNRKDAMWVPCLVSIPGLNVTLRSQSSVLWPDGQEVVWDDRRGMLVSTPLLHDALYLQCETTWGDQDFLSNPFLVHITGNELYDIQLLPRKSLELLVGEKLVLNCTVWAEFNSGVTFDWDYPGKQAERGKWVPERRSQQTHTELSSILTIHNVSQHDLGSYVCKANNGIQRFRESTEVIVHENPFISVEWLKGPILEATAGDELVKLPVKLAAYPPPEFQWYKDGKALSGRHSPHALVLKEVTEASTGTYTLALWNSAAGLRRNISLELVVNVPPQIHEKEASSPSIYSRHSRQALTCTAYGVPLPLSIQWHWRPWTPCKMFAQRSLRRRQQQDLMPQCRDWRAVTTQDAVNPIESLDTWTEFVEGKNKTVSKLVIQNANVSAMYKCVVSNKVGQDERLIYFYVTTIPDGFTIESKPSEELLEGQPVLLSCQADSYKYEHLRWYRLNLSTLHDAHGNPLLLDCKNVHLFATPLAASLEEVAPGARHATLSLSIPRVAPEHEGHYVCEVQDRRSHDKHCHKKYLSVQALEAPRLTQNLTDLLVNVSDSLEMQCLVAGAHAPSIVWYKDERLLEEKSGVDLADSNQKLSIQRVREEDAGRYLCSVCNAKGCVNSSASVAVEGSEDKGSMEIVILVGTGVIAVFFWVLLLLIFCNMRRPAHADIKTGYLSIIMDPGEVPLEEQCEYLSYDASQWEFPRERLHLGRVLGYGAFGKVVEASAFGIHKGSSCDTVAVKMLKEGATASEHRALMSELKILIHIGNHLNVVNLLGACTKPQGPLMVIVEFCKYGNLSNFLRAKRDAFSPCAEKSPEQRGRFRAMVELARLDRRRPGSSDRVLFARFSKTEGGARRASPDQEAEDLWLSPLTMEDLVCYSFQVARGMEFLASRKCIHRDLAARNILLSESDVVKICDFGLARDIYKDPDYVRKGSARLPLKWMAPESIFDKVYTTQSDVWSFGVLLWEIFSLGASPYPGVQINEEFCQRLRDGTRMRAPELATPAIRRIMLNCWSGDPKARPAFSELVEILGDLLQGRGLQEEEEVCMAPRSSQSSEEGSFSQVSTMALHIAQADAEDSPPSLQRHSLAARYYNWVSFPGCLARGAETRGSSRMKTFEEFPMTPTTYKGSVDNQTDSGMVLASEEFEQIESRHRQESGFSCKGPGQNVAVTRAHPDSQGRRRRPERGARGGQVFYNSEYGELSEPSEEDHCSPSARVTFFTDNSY
From the text: (§1) We assessed the selectivity of members of this scaffold using the KINOMEscan methodology across a near comprehensive panel of 442 kinases [[18,27]].

panel of 442 kinases [2] = target: T2, panel of 442 kinases (Homo sapiens, UniProt O94921)
T2 construct: purchased KINOMEscan
T2 sequence (O94921 whole entry): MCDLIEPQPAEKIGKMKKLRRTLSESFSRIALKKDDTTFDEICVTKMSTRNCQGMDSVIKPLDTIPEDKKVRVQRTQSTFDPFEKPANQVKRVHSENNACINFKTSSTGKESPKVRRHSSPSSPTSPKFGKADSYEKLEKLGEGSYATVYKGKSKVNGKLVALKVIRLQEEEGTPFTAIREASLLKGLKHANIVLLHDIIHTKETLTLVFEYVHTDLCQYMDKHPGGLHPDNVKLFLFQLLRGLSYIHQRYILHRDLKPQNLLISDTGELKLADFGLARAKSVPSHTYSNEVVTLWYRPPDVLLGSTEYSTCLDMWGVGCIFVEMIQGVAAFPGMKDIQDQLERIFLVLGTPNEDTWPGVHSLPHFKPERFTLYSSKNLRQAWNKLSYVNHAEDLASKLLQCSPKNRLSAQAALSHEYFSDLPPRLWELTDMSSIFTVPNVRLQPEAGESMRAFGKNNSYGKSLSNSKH
From the text: as §1

panel of 442 kinases [3] = target: T3, panel of 442 kinases (Homo sapiens, UniProt Q13557)
T3 construct: purchased KINOMEscan
T3 sequence (Q13557 whole entry): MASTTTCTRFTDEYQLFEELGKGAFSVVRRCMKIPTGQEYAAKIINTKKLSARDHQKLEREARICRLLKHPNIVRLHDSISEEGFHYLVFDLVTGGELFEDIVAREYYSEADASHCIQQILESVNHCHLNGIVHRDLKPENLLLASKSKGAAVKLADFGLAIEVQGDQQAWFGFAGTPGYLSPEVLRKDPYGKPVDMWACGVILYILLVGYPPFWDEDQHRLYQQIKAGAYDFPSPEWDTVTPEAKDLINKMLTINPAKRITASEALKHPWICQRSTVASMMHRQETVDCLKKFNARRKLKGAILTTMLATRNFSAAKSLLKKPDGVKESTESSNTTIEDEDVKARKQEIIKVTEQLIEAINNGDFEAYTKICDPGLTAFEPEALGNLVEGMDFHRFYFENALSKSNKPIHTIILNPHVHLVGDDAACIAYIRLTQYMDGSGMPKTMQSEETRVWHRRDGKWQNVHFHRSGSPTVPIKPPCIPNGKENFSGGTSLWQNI
From the text: as §1

panel of 442 kinases [4] = target: T4, panel of 442 kinases (Homo sapiens, UniProt P49761)
T4 construct: purchased KINOMEscan
T4 sequence (P49761 whole entry): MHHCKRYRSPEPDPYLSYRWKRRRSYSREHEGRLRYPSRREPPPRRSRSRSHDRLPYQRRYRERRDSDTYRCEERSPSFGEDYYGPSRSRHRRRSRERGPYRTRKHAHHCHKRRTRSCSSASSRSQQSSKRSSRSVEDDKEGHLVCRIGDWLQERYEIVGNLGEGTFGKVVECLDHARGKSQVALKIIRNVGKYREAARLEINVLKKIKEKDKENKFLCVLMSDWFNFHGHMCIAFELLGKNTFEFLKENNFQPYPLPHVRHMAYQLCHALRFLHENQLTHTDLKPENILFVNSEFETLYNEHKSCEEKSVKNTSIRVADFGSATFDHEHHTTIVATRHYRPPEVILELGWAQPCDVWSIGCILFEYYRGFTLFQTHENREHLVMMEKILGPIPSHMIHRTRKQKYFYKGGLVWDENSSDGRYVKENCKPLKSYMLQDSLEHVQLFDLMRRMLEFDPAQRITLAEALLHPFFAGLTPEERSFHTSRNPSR
From the text: as §1

SMILES | KINOMEscan: FLT4 (panel of 442 kinases [1]) | KINOMEscan: PFTK1 (panel of 442 kinases [2]) | KINOMEscan: CAMK2D (panel of 442 kinases [3]) | KINOMEscan: CLK3 (panel of 442 kinases [4])
CCOc1cc(C(=O)N2CCC(N3CCN(C)CC3)CC2)ccc1Nc1ncc2c(n1)N(C1CCCC1)c1ccccc1C(=O)N2C [Compound 26] | 100 | 100 | 96 | 100
COc1cc(C(=O)N2CCC(N3CCN(C)CC3)CC2)ccc1Nc1ncc2c(n1)N(C1CCCC1)c1ccccc1C(=O)N2C [Compound 25, 11-cyclopentyl-2-((2-methoxy-4-(4-(4-methylpiperazin-1-yl)piperidine-1-carbonyl)phenyl)amino)-5-methyl-5H-benzo[e]pyrimido[5,4-b][1,4]diazepin-6(11H)-one] | 100 | 100 | 100 | 100
COc1cc(C(=O)N2CCC(N3CCN(C)CC3)CC2)ccc1Nc1ncc2c(n1)N1CCc3cccc(c31)C(=O)N2C [Compound 24] |  |  | 62 | 80
COc1cc(C(=O)N2CCC(N3CCN(C)CC3)CC2)ccc1Nc1ncc2c(n1)N(C)c1ccccc1C(=O)N2C [15 (LRRK2-IN-1)] | 100 | 81 | 28 | 95

Source: PMC3914206
